Assay results reported in patent publication US6133264A, “Carbostyril derivatives for inhibiting skin erythema and/or skin pigmentation” (Otsuka Pharmaceutical Co., Ltd., priority 1997, dated 2000).
Structures can show the parent of a compound that is named as a salt.

Legend:
skin pigmentation = assay: Effect for preventing skin pigmentation caused by UV rays irradiation; type: in vivo, colored guinea pig (A-1 strain, female); conditions: 3% test compound solution, 14 days after UV irradiation; for (E): ΔL value of brightness of the skin coated with test compound solution (test section): 10 μl/cm^2; for Inhibitory ratio of skin pigmentation (%): {1-[(E)/(F)]}×100
Experimental: (3) Effect for preventing skin pigmentation caused by UV rays irradiation This is an experimental model of quantitative evaluation of effect for preventing skin pigmentation caused by UV rays irradiation performed by test compound. [Test was conducted by a modified method according to procedures of J. Dermatol. Vol. 17, pp. 595-598,(1990).] Hairs on the back of a colored guinea pig (A-1 strain, female, age of 8-10 weeks) were shaved and the body of guinea pig was fixed on a Bowlman cage, and predermined 2 sections of UV rays irradiation. […] The inhibitory ratio of the skin pigmentation (%) performed by the test compound was calculated from the following formula. […] [wherein (E): ΔL value of brightness of the skin coated with test compound solution (test section), (F): ΔL value of brightness of the skin coated the solvent (reference section), and ΔL value: difference of brightness of the skin between the portion without irradiated and the portion irradiated with UV rays].

[1] = tested on: skin reaction (erythema and edema); assay: Skin sensitization test (Adjuvant and strip test), photosensitization; type: in vivo, Albino guinea pigs (Hertley strain, female); conditions: 3% test compound solution, open-coated; observed 24 hours and 48 hours; [(G)/(H)]×100
Text: (4) Skin sensitization test [Adjuvant and strip test: J. Invest. Dermatol., Vol. 76, pp 498-501, (1981)]
This test was used as experimental model for evaluating the existence of toxicity of photosensitization to the skin performed by the test compounds.
(i) Procedure for inducing photosensitization
Albino guinea pigs (Hertley strain, female, age of 5-6 weeks) were used. Hairs of the nuchal area of the guinea pig were shaved, and designated the test sample coating section having 2×4 cm in size. At the four corners of the test sample coating section, 0.1 ml each of E-FCA (an emulsion consisting of the same volume each of Freund's complete adjuvant with sterilized distilled water) were intracutaneouly injected. The coating section was subjected to striping repeatedly by use of Cellophane tape until the section turned to slightly erythema, then 0.1 ml of test compound solution (aqueous or 50% ethanol-water solution) of 3% in concentration was open-coated on the section. 30 Minutes after the coating, UV rays of about 10 J/cm^2 in dosage was irradiated by use of a fluorescent lamp of healthy light (TOSHIBA FL-20S-BLB) as a light source. The above-mentioned procedure was carried out once a day, and continuously conducted for 5 days, provided that E-FCA was administered only on the first day.
(ii) Procedure for introducing sensitization
3 Weeks after the beginning of induction period of photosensitization, the covering hairs on the back of guinea pig were shaved, and determined a circular section, having 1.5 cm in diameter, for coating test samples, and 20 μl of test compound solution (aqueous or 50% ethanol-water solution) of 3% in concentration was open-coated on the section. The test sample coated section was observed 24 hours and 48 hours, and examined existences of skin reaction (erythema and edema). In case of skin reaction was appeared, then it was determined as positive reaction in skin sensitization which was defined as a positive ratio (%) calculated from the following formula.
Positive ratio (%)=[(G)/(H)]×100
(G): Number of positive reactions in skin sensitization and
(H): Number of total animal tests].

[2] = DPPH free radical extinction activity test; type: biochemical; conditions: relative to α-tocopherol (= 2); 5 μl of 10 mM test compound, 30° C., 30 minutes, pH 5.5 buffer, 517 nm
Experimental: (1) DPPH free radical extinction activity test
The test was conducted by procedures according to the method by Marsden S. Blois [Nature, Vol. […], 1199-1200, (1958)].
Into 0.5 ml of 200 mM of acetic acid buffer solution (pH 5.5) were added 0.5 ml of distilled water, 0.5 ml of ethanol and 5 μl of 10 mM of the test compound solution (an ethanol solution, a dimethylformamide solution or an aqueous solution), and stirred at 30° C. for 5 minutes. To this mixed solution was added 1.5 ml of an ethanol solution of 250 μM of 1,1-diphenyl-2-picrylhydrazyl (DPPH), this mixture was incubated at 30° C. for 30 minutes. After the incubation, the optical absorbance (at 517 nm) of this reaction mixture was measured, and the number of captured free radicals of DPPH was calculated from the ratio of optical absorbance of test compound and that of α-tocopherol (standard substance: the number of captured free radicals: 2) by the following formula: […]
Number of captured free radicals of DPPH performed by test
(A): optical absorbance of the test sample, and
(B): optical absorbance of α-tocopherol].

skin erythema (sunburn) = assay: Effect for preventing skin sunburn caused by UV rays irradiation (in vivo); design: species or system albino guinea pig (Hartley strain, female); conditions: 3% test compound solution, 24 hours after UV irradiation; for (C): Δa value of test section of skin coated with test compound solution: 10 μl; for inhibition in vivo at 3 %: Cavia porcellus, light or radiation study, topical, 24 h, read-out: Inhibitory ratio of skin erythema (%); for inhibition in vivo at 3 % / Inhibitory ratio of skin erythema (%): {1-[(C)/(D)]}×100
Experimental: (2) Effect for preventing skin sunburn caused by UV rays irradiation (in vivo)
This test is an experimental model of quantitative evaluation of effect for preventing skin sunburn, caused by UV rays irradiation, performed by the test compound. [Test was conducted by a modified method according to the procedures of J. Dermatol. Vol. 17, pp. 595-598, (1990).]
Hairs on the back of an albino guinea pig (Hartley strain, female, age of 7-8 weeks) were shaved by use of an electric hair clipper and an electric shaver. Next day, the guinea pig was fixed on a Bowlman cage, a piece of shading tape (a plaster for patch test) having 4 circular holes of 1.5 cm in diameter was put on the shaved portion of the skin, and predetermined 2 sections of UV rays irradiation. One section (reference section) was coated with 10 μl of a solvent (water or 50% ethanol-water solution). Another section (test section) was coated with 10 μl of 3% test compound solution (aqueous or 50% ethanol-water solution). 30 Minutes after the coating, UV rays of 1.3-1.5 mW/cm^2 in strength was irradiated for 30 minutes by use of a fluorescent lamp of healthy light (TOSHIBA FL-20.cndot.SE) as a light source. 24 Hours after the irradiation, the reference section (coated with the solvent only) and the test section (coated with test compound solution) were observed respectively, and the erythrochromia (Δa value) on both reference section and test section were measured by use of a color difference meter (OFC-300A Type, mfd. by NIHON DENSHOKU KOGYO CO., LTD). The inhibitory ratio of skin erythema (sunburn) performed by the test compound was calculated from the following formula.
Inhibitory ratio of skin erythema (sunburn) (%)={1-[(C)/(D)]}×100
(C): Δa Value of test section of skin coated with test compound solution,
(D): Δa Value of reference section of skin coated with the solvent only, and
Δa value: difference of skin erythema on the portion irradiated with UV rays].

[3] = assigned value of the standard α-tocopherol; cited from earlier work

Structure (SMILES) | (E): ΔL value of brightness of the skin coated with test compound solution (test section) (skin pigmentation) | Inhibitory ratio of skin pigmentation (%) (skin pigmentation) | Positive ratio (%) [1] | Number of captured free radicals of DPPH [2] | (C): Δa value of test section of skin coated with test compound solution (skin erythema (sunburn)) | inhibition in vivo at 3 % (skin erythema (sunburn)) | Inhibitory ratio of skin erythema (%) (skin erythema (sunburn)) | number of captured free radicals (standard substance) [3]
C=CCOc1cc(CN(C)C)c(O)c2c1NC(=O)CC2 [Example 18, 8-allyloxy-3,4-dihydro-5-hydroxy-6-dimethyl-aminomethyl-2(1H)-quinolinone hydrochloride] | -3.53 ± 1.24 | 49% | 0% | 1.5 | 3.87 ± 2.45 | 51% |  | 
CCN(CC)Cc1ccc2c(c1O)CCC(=O)N2 [Example 13, 6-diethylaminomethyl-5-hydroxy-3,4-dihydrocarbostyril] |  |  | 0% | 1 | 3.93 ± 0.92 | 42% |  | 
C=CCOc1cc(CN2CCCCC2)c(O)c2c1NC(=O)CC2 [Example 33] | -2.61 ± 2.98 | 55% | 0% | 1.5 | 3.96 ± 1.02 |  | 49% | 
CCN(CC)Cc1cc(C)c2c(c1O)CCC(=O)N2 [Example 9, 5-Hydroxy-6-diethylaminomethyl-8-methyl-3,4-dihydro-2(1H)-quinolinone] |  |  | 0% | 1 | 4.69 ± 1.62 | 38% |  | 
Cl.O=c1ccc2c(CN3CCCC3)c(O)ccc2[nH]1 [Example 22, 6-hydroxy-5-(1-pyrrolidinyl)methyl-2(1H)-quinolinone hydrochloride] |  |  | 0% | 1.5 | 5.51 ± 2.32 | 37% |  | 
Cc1c(C)c2c(c(C)c1O)CCC(C)(CCCC(C)CCCC(C)CCCC(C)C)O2 (stereo not drawn) [α-tocopherol] |  |  |  |  |  |  |  | 2
C=CCOc1cc(CN2CCCCC2)c(O)c2c1NC(=O)CC2 [Example 28, 8-allyloxy-3,4-dihydro-5-hydroxy-6-(1-piperidinyl)methyl-2(1H)-quinolinonehydrochloride] | -4.51 ± 1.87 | 43% | 0% | 2 | 1.13 ± 0.58 |  | 78% | 
C=CCOc1cc(CN2CCCCC2)c(O)c2c1N(CC=C(C)C)C(=O)CC2 [Example 32] | -3.37 ± 2.36 | 42% | 0% | 1 | 2.17 ± 0.97 | 64% |  | 
COc1cc(CN(C)C)c(O)c2c1NC(=O)CC2.Cl [Example 35, 6-(dimethylaminomethyl)-3,4-dihydro-5-hydroxy-8-methoxy-2(1H)-quinolinone hydrochloride] | -4.44 ± 2.17 | 35% | 0% | 1.5 | 3.61 ± 2.91 | 51% |  | 
Cc1cc2c(c(CN3CCCC3)c1O)NC(=O)CC2 [Example 25] | -5.02 ± 2.02 | 38% | 0% | 1 | 3.31 ± 2.00 | 64% |  | 
O=C1CCc2c(O)c(CN3CCCC3)cc(OC3CCCCO3)c2N1 (stereo not shown) [Example 47] | -4.89 ± 1.24 | 38% | 0% | 3.5 | 0.88 ± 0.29 | 76% |  | 
CCCOc1cc(CN2CCCCC2)c(O)c2c1NC(=O)CC2.Cl [Example 30, 3,4-dihydro-8-propyloxy-5-hydroxy-6-(1-piperidinyl)methyl-2(1H)-quinolinone hydrochloride] | -3.40 ± 1.18 | 50% | 0% | 2 | 4.73 ± 1.94 | 40% |  | 
